Measurements published in ChEMBL document CHEMBL1122535, “Mesoionic pyridazine ribonucleosides. A novel biologically active nucleoside metabolite” (1984).
≈ marks a conversion by molar mass, not a printed value.

How the values were obtained:
Escherichia coli [1] = assay: Minimum inhibitory concentration against Escherichia coli (EC) in Davis minimal media under Anaerobic conditions(in vitro); format: functional
Escherichia coli [2] = assay: Minimum inhibitory concentration against Escherichia coli (EC) in Davis minimal media under Aerobic conditions(in vitro); format: functional
Escherichia coli [3] = assay: Minimum inhibitory concentration against Escherichia coli (EC) in Davis minimal media under Anaerobic conditions(in vitro); No indication of toxicity; format: functional, organism-based
Escherichia coli [4] = assay: Minimum inhibitory concentration against Escherichia coli (EC) in Davis minimal media under aerobic conditions(in vitro); No indication of toxicity; format: functional, organism-based

| SMILES | MIC (Escherichia coli [1]) [mg/L] | MIC (Escherichia coli [2]) [mg/L] | MIC (Escherichia coli [3]) | MIC (Escherichia coli [4]) |
| --- | --- | --- | --- | --- |
| Nc1cc[n+]([C@@H]2O[C@H](CO)[C@@H](O)[C@H]2O)nc1[O-] | 100 (≈ 411 µM) | – | – | – |
| N.[O-]c1n[n+]([C@@H]2O[C@H](CO)[C@@H](O)[C@H]2O)ccc1S | 100 | – | – | – |
| COc1cc[n+]([C@@H]2O[C@H](CO)[C@@H](O)[C@H]2O)nc1[O-] | 100 (≈ 387 µM) | – | – | – |
| NC(=O)c1cc[n+]([C@@H]2O[C@H](CO)[C@@H](O)[C@H]2O)nc1[O-] | – | – | No indication of toxicity | No indication of toxicity |

The next lines start with results.

| MIC (Escherichia coli [1]) [mg/L] | MIC (Escherichia coli [2]) [mg/L] | SMILES | MIC (Escherichia coli [3]) | MIC (Escherichia coli [4]) |
| --- | --- | --- | --- | --- |
| 0.2 (≈ 0.761 µM) | 0.2 (≈ 0.761 µM) | [O-]c1n[n+]([C@@H]2O[C@H](CO)[C@@H](O)[C@H]2O)ccc1Cl | – | – |
| 3.1 (≈ 12.2 µM) | 0.78 (≈ 3.08 µM) | N#Cc1cc[n+]([C@@H]2O[C@H](CO)[C@@H](O)[C@H]2O)nc1[O-] | – | – |
| – | 100 (≈ 339 µM) | CC(=O)OC[C@H]1O[C@@H]([n+]2ccc(C#N)c([O-])n2)[C@H](O)[C@@H]1O | – | – |
| 25 (≈ 82.1 µM) | 25 (≈ 82.1 µM) | CC(=O)OC[C@H]1O[C@@H]([n+]2ccc(Cl)c([O-])n2)[C@H](O)[C@@H]1O | – | – |
